The subject of one data set is HCC2935. Briefly: Cytotoxicity on lung cancer cell lines, assay similar to Example 1 (Example 4). To be noted: Homo sapiens.
The next data set concerns NCI-N87. Briefly: Cytotoxicity on gastric cancer cell lines, assay similar to Example 1 (Example 4). To be noted: Homo sapiens.
The test system of a further data set is NCI-H460. Briefly: Cytotoxicity on lung cancer cell lines, assay similar to Example 1 (Example 4). To be noted: Homo sapiens.
Another data set has as its system NCI-H2452. The data set is described as above. To be noted: Homo sapiens.
A further data set deals with Panc-1. Briefly: Cytotoxicity on pancreatic cancer cell lines, assay similar to Example 1 (Example 4). To be noted: Homo sapiens.
The subject of another data set is SCC-4. Briefly: CellTiter-Glo cell viability, T48 (Example 3). The format is cell-based. An excerpt:
(§1) Day 2—Compound Treatment.
(§2) Day 4—Viability Measurements.

For another data set, the system named is CAL-27. Briefly: CellTiter-Glo cell viability, T48 (Example 3). The format is cell-based.
Excerpt: as §1, §2

The test system of a further data set is COLO-680N. Briefly: CellTiter-Glo cell viability, T48 (Example 3). The format is cell-based.
Excerpt: as §1, §2

For another data set, the system named is T.Tn. Briefly: CellTiter-Glo cell viability, T48 (Example 3). The format is cell-based.
Excerpt: as §1, §2

The subject of the next data set is SCC-15. Briefly: CellTiter-Glo cell viability, T48 (Example 3). The format is cell-based.
Excerpt: as §1, §2

In the next data set the test system is SCC-9. Briefly: CellTiter-Glo cell viability, T48 (Example 3). Format: cell-based.
Excerpt: as §1, §2

Another data set relates to FADU. Briefly: CellTiter-Glo cell viability, T48 (Example 3). Format: cell-based.
Excerpt: as §1, §2

The next data set deals with KYSE-150. Briefly: CellTiter-Glo cell viability, T48 (Example 3). The format is cell-based.
Excerpt: as §1, §2

Another data set has as its system TE-1. Briefly: CellTiter-Glo cell viability, T48 (Example 3). Format: cell-based.
Excerpt: as §1, §2

The test system of another data set is KYSE-70. Briefly: CellTiter-Glo cell viability, T48 (Example 3). Format: cell-based.
Excerpt: as §1, §2

The next data set concerns RPMI-2650. Briefly: CellTiter-Glo cell viability, T48 (Example 3). Format: cell-based.
Excerpt: as §1, §2

Another data set concerns SCC-25. Briefly: CellTiter-Glo cell viability, T48 (Example 3). Format: cell-based.
Excerpt: as §1, §2

In a further data set the test system is KYSE-410. Briefly: CellTiter-Glo cell viability, T48 (Example 3). The format is cell-based.
Excerpt: as §1, §2

Another data set concerns OSC-19. Briefly: CellTiter-Glo cell viability, T48 (Example 3). Format: cell-based.
Excerpt: as §1, §2

The test system of another data set is KYSE-270. Briefly: CellTiter-Glo cell viability, T48 (Example 3). The format is cell-based.
Excerpt: as §1, §2

Another data set has as its system A253. Briefly: CellTiter-Glo cell viability, T48 (Example 3). Format: cell-based.
Excerpt: as §1, §2

The next data set relates to Detroit 562. Briefly: CellTiter-Glo cell viability, T48 (Example 3). The format is cell-based.
Excerpt: as §1, §2

For the next data set, the system named is SW579. Briefly: CellTiter-Glo cell viability, T48 (Example 3). The format is cell-based.
Excerpt: as §1, §2

Another data set relates to SW620. Briefly: CellTiter-Glo cell viability, 48 h (Examples 1, 2). Format: cell-based. To be noted: Homo sapiens, SW-620. An excerpt:
(§3) Test Article Preparation for INBRX-109.
(§4) Day 2—Test and Control Article Addition.
(§5) Day 4—Viability Measurements. […] Data was graphed in GraphPad Prism 7.

Another data set deals with AsPC-1. Briefly: Cytotoxicity on pancreatic cancer cell lines, assay similar to Example 1 (Example 4). To be noted: Homo sapiens, ASPC1.
A further data set has as its system SNU-5. Briefly: Cytotoxicity on gastric cancer cell lines, assay similar to Example 1 (Example 4). To be noted: Homo sapiens.
The test system of the next data set is SNU-1. Described as above. To be noted: Homo sapiens, SNU1.
The next data set relates to LS411N. Briefly: CellTiter-Glo cell viability, 48 h (Example 1). Format: cell-based. To be noted: Homo sapiens, LS-411N.
Excerpt: as §3, §4, §5

The next data set has as its system SNU-C2B. Briefly: CellTiter-Glo cell viability, 48 h (Example 1). Format: cell-based. To be noted: Homo sapiens.
Excerpt: as §3, §4, §5

The next data set concerns MIA-PaCa-2. Briefly: Cytotoxicity on pancreatic cancer cell lines, assay similar to Example 1 (Example 4). To be noted: Homo sapiens.
A further data set deals with NCI-H23. Briefly: Cytotoxicity on lung cancer cell lines, assay similar to Example 1 (Example 4). To be noted: Homo sapiens.
The subject of a further data set is A549. Described as above. To be noted: Homo sapiens.
The next data set deals with SW1990. Briefly: Cytotoxicity on pancreatic cancer cell lines, assay similar to Example 1 (Example 4). To be noted: Homo sapiens.
The next data set concerns HT-29. Briefly: CellTiter-Glo cell viability, 48 h (Example 1). Format: cell-based. To be noted: Homo sapiens.
Excerpt: as §3, §4, §5

In the next data set the test system is LOVO. Briefly: CellTiter-Glo cell viability, 48 h (Example 1). The format is cell-based. To be noted: Homo sapiens.
Excerpt: as §3, §4, §5

Another data set relates to LS174T. Briefly: CellTiter-Glo cell viability, 48 h (Examples 1, 2). Format: cell-based. To be noted: Homo sapiens, LCL-161 5 uM alone.
Excerpt: as §3, §4, §5

Where [1] appears, read: Homo sapiens, Debio-1143 4.5 μM alone.
Where [2] appears, read: LCL-161 5 uM alone, read-out: % cytotoxicity.

Method for A549: (§6) Day 1-Cell Seeding. Monolayer cultures of each cell line were harvested for compound screening as detailed below. Culture medium was aspirated, and the cells were washed once with PBS. Accutase was added and flasks were incubated at 37° C. until cells became detached. An equal volume of complete medium was added to quench the Accutase, and the cells were then pipetted up and down several times to generate a homogenous single cell suspension. The density and viability of cells was determined by Trypan Blue using a TC20 Automated Cell Counter. Experimental cells were resuspended to a concentration of 0.17×10^6/mL in EMEM/10% FBS/Anti-Anti media (complete EMEM) and seeded in the inner wells of 384-well luminescence plates at 15 μL/well (2,500/well final). Each cell line was plated in duplicate on separate plates. […]
(§7) Day 4—Viability Measurements. […] Any visible bubbles were removed with 100% ethanol vapor, then luminescence (RLU) was read on the Spectra Max M5e plate reader, using the 384-well opaque plate setting and SoftMaxPro v5.4 software with an integration time of 50 milliseconds. To determine the effect of test articles on cell viability, raw RLU values were exported to Excel and percent survival was calculated as a percentage of vehicle control (0.2% DMSO in EMEM), where the vehicle control is set at 100%. […]
Method for AsPC-1: as §6
(§8) Day 4—Viability Measurements. […] Any visible bubbles were removed with 100% ethanol vapor, then luminescence (RLU) was read on the Spectra Max M5e plate reader, using the 384-well opaque plate setting and SoftMaxPro v5.4 software with an integration time of 50 milliseconds. To determine the effect of test articles on cell viability, raw RLU values were exported to Excel and percent survival was calculated as a percentage of vehicle control (0.2% DMSO in EMEM), where the vehicle control is set at 100%.
Method for HCC2935: as §6, §7
Method for MIA-PaCa-2: as §6, §7
Method for NCI-H23: as §6, §7
Method for NCI-H2452: as §6, §7
Method for NCI-H460: as §6, §7
Method for NCI-N87: as §6, §8
Method for Panc-1: as §6, §8
Method for SNU-1: as §6, §8
Method for SNU-5: as §6, §8
Method for SW1990: as §6, §7

Turning to `CN[C@@H](C)C(=O)N[C@H]1CN(C(=O)CC(C)C)CC[C@H]2CC[C@@H](C(=O)NC(c3ccccc3)c3ccccc3)N2C1=O` [Debio-1143, xevinapant], the cytotoxicity at 2 µM with HCC2935 is 4.95%; in the data set with NCI-N87, 7.01%; in the data set with NCI-H460, 3.43%; in the data set on NCI-H2452, 2.82%; in the data set on Panc-1 it was 13.6%; with AsPC-1 it was 2.71%. Further, the cytotoxicity at 2 µM with SNU-5 is 31.5%; in the data set on SNU-1, 6.83%; with MIA-PaCa-2, 7.37%; in the data set with NCI-H23, 10.8%; in the data set on A549, 9.61%; with SW1990, 2.23%. Also, the cytotoxicity at 4.5 µM with SCC-4 (setting [1]) came out at 0.7%; in the data set with CAL-27 (setting [1]), 7.2%; in the data set with COLO-680N (setting [1]), 3.4%; in the data set on T.Tn (Debio-1143 4.5 μM alone), 4.4%; in the data set with SCC-15 (setting [1]), 0.9%; in the data set with SCC-9 (setting [1]), 2.3%. The cytotoxicity at 4.5 µM in the data set with FADU (setting [1]) is -3.7%; with KYSE-150 (setting [1]), -13.7%; with TE-1 (setting [1]), -6%; in the data set on KYSE-70 (setting [1]), -6.7%; in the data set on RPMI-2650 (setting [1]), 5.6%; in the data set with SCC-25 (setting [1]), 0.6%. The cytotoxicity at 4.5 µM with KYSE-410 (setting [1]) is -3.3%; in the data set with OSC-19 (OSC19, Debio-1143 4.5 μM alone) it was -7.1%; in the data set on KYSE-270 (setting [1]), 8.2%; in the data set with A253 (setting [1]) it was 3.2%; in the data set with Detroit 562 (setting [1]) it was 9%; in the data set on SW579 (Debio-1143 4.5 μM alone), 7.7%. Moreover, the results for the cytotoxicity at 4.5 µM in the data set with SW620, with LS411N and in the data set with SNU-C2B were 5.5%, 0.4% and 44.8%, respectively.
Regarding `CN[C@@H](C)C(=O)N[C@H](C(=O)N1CCC[C@H]1C(=O)N[C@H]1c2ccccc2C[C@H]1OCC#CC#CCO[C@@H]1Cc2ccccc2[C@@H]1NC(=O)[C@@H]1CCCN1C(=O)[C@@H](NC(=O)[C@H](C)NC)C1CCCCC1)C1CCCCC1` [AZD5582], the cytotoxicity at 0.45 µM in the data set with SW620 (SW620, AZD5582 450 nM alone) stood at 4.1%; with HT-29 (AZD5582 450 nM alone), 23.4%; in the data set with LS411N (LS411N, AZD5582 450 nM alone) it was 12.7%; in the data set on LOVO (AZD5582 450 nM alone), 28.2%; in the data set on SNU-C2B (AZD5582 450 nM alone), 75.3%.
As to `CN[C@@H](C)C(=O)N[C@H](C(=O)N1CCC[C@H]1c1nc(C(=O)c2ccc(F)cc2)cs1)C1CCCCC1` [LCL-161], the cytotoxicity at 5 µM was found to be 4.7% in the data set on SW620 (SW620, LCL-161 5 uM alone, read-out: % cytotoxicity); 9% in the data set with LS174T; 6.2% in the data set on HT-29 (setting [2]); 10.5% in the data set with LS411N (LS411N, LCL-161 5 uM alone, read-out: % cytotoxicity); 72.9% in the data set with SNU-C2B (setting [2]).
For `C[C@@H]1CN(CC(=O)N2CC(C)(C)c3nc(CO)c(Cc4ccc(F)cc4)cc32)[C@@H](CN2CCOC[C@H]2C)CN1` [ASTX660, tolinapant], the cytotoxicity at 0.9 µM in the data set on SW620 (SW620, ASTX660 900 nM alone) came to 2.6%; in the data set on HT-29 (ASTX660 900 nM alone) it was 0.3%; in the data set with LS411N (LS411N, ASTX660 900 nM alone), 5.9%; with LOVO (ASTX660 900 nM alone), 6.5%; with SNU-C2B (ASTX660 900 nM alone), 31.1%.

B1: INBRX-109: DR5-binding polypeptide consisting of SEQ ID NO: 7, or SEQ ID NO: 7 lacking the terminal lysine; tetravalent DR5 agonist (protein)
chain: EVQLLESGGGEVQPGGSLRLSCAASGLTFPNYGMGWFRQAPGKEREFVSAIYWSGGTVYYAESVKGRFTISRDNAKNTLYLQMSSLRAEDTAVYYCAVTIRGAATQTWKYDYWGQGTLVTVKPGGSGGSEVQLLESGGGEVQPGGSLRLSCAASGLTFPNYGMGWFRQAPGKEREFVSAIYWSGGTVYYAESVKGRFTISRDNAKNTLYLQMSSLRAEDTAVYYCAVTIRGAATQTWKYDYWGQGTLVTVKPGGGGDKTHTCPPCPAPGGPSVFLFPPKPKDTLMISRTPEVTCVVVDVSHEDPEVKFNWYVDGVEVHNAKTKPREEQYNSTYRVVSVLTVLHQDWLNGKEYKCKVSNKALPAPIEKTISKAKGQPREPQVYTLPPSRDELTKNQVSLTCLVKGFYPSDIAVEWESNGQPENNYKTTPPVLDSDGSFFLYSKLTVDKSRWQQGNVFSCSVMHEALHNHYTQKSLSLSPGK
modifications: Synthetic: INBRX-109
notes: tetravalent DR5 agonist
In the case of B1, the “% cytotoxicity” value came out at 8.5% in the data set with SCC-4 (INBRX-109 1 nM alone); 13.7% in the data set with CAL-27 (INBRX-109 1 nM alone); 9.6% in the data set with COLO-680N (INBRX-109 1 nM alone); 42.9% in the data set on T.Tn (INBRX-109 1 nM alone); 7.3% in the data set with SCC-15 (INBRX-109 1 nM alone); 19.4% in the data set on SCC-9 (INBRX-109 1 nM alone). Also, the “% cytotoxicity” value in the data set on FADU (INBRX-109 1 nM alone) is recorded as 6.1%; with KYSE-150 (INBRX-109 1 nM alone), −0.3%; in the data set with TE-1 (INBRX-109 1 nM alone) it was 38.4%; in the data set with KYSE-70 (INBRX-109 1 nM alone) it was 22.3%; with RPMI-2650 (INBRX-109 1 nM alone) it was 2.9%; in the data set with SCC-25 (INBRX-109 1 nM alone) it was 7.9%. Besides, the “% cytotoxicity” value in the data set with KYSE-410 (INBRX-109 1 nM alone) came out at 2.6%; in the data set with OSC-19 (INBRX-109 1 nM alone), 100.9%; with KYSE-270 (INBRX-109 1 nM alone), 7.3%; in the data set with A253 (INBRX-109 1 nM alone), 50.9%; in the data set on Detroit 562 (INBRX-109 1 nM alone) it was 42.9%; with SW579 (INBRX-109 1 nM alone), 101.7%.

The values are drawn from patent US20250302948A1, “DR5 Agonist and IAP Antagonist Combination Therapy” (Inhibrx Biosciences, Inc., priority 2022, published 2025).
